Tested on: haloperidol induced catalepsy
Assay: reversal of haloperidol induced catalepsy
Assay type: in vivo, Sprague-Dawley rats
Settings: rats, haloperidol 1.5 mg/kg i.p., compound 0.1-56.6 mg/kg oral, tested 30 minutes after compound; data in FIG. 5
Method: Animals. Male Sprague-Dawley rats weighing between 275 and 300 g (Harlan Laboratories, Indianapolis, Ind.) were used for the behavioral studies and were maintained in accordance with American Association for the Accreditation of Laboratory Animal Care guidelines under a 12-h light/dark cycle (lights on at 6 AM, lights off at 6 PM) with free access to food and water. The experimental procedures, which were performed during the light cycle, were approved by the Institutional Animal Care and Use Committee of Vanderbilt University and conformed to the guidelines established by the National Research Council Guide for the Care and Use of laboratory Animals. Rats were injected with haloperidol (1.5 mg/kg, i.p., dissolved in 8.5% lactic acid, pH=6) 60 minutes prior to the oral administration of Example 46 ((0.1-56.6 mg/kg) or vehicle (10% Tween 80). 30 minutes after compound administration all rats were tested for catalepsy. Catalepsy was assessed using a horizontal bar placed 6 cm from the testing surface. The forepaws of each rat were placed gently on the bar with the body positioned at an angle of ˜45° to the testing surface. The latency in seconds required for the rat to remove one or both forepaws from the bar was manually measured with a cutoff of 30 seconds.

Question: `FC(F)(F)c1nccc2cc(Nc3n[nH]c4ncccc34)ccc12` [Example 46, N-(1H-pyrazolo[3,4-b]pyridin-3-yl)-1-(trifluoromethyl) isoquinolin-6-amine] was tested. Which “reversal of haloperidol induced catalepsy” value did it give?
Answer: The value was “reversal of haloperidol induced catalepsy”.
